Reference: patent US9326513B2, “Fungicidal compositions” (Syngenta Participations AG, priority 2011, dated 2016)

Tests used:
Pyrenophora teres = Pyrenophora teres / barley / leaf disc preventative (net blotch); type: in vivo; details: foliar, compared to untreated control leaf disks, read-out: disease control
From the text: Pyrenophora teres/Barley/Leaf Disc Preventative (Net Blotch) Barley leaf segments cv. Hasso were placed on agar in a multiwell plate (24-well format) and sprayed with the formulated test compound diluted in water. The leaf segments were inoculated with a spore suspension of the fungus 2 days after application.

Gaeumannomvces graminis = Gaeumannomvces graminis (take-all of cereals), PDB microtiter plate, visual after 48 hrs; type: cell-based; details: solo; for inhibition at 0.015625 ppm: rate 0.015625 ppm
From the text: In the following Tables ‘Activity (%)’ means the assessed experimental activity (% disease control in this test when compared to untreated control leaf disks under the same conditions, which show extensive disease development) and “P” is the expected value calculated (expected) activity according to the COLBY formula (see above). The column headed ‘S?’ indicates whether or not synergy was observed, with ‘y’ meaning that synergy was observed. Gaeumannomvces graminis (Take-all of Cereals) Mycelial fragments of the fungus from cryogenic storage were directly mixed into nutrient broth (PDB potato dextrose broth). After placing a (DMSO) solution of the test compounds into a microtiter plate (96-well format) the nutrient broth containing the fungal spores was added.

[1] = tested on: Puccinia recondita f. sp. tritici; assay: Puccinia recondita f. sp. tritici / wheat / leaf disc curative (brown rust); type: in vivo; details: foliar, compared to untreated control leaf disks, read-out: disease control
Experimental: Puccinia recondita f. sp. tritici/Wheat/Leaf Disc Curative (Brown Rust) Wheat leaf segments cv. Kanzler are placed on agar in multiwell plates (24-well format). The leaf segments are inoculated with a spore suspension of the fungus. Plates were stored in darkness at 19° C. and 75% rh. The formulated test compound diluted in water was applied 1 day after inoculation.

Pythium ultimum = Pythium ultimum (damping off), PDB microtiter plate, visual after 48 hrs; type: cell-based; details: Globisporangium ultimum, solo

| SMILES | pest or weed control at 200 ppm (Pyrenophora teres) [%] | inhibition at 0.00390625 ppm (Gaeumannomvces graminis; rate 0.00390625 ppm) [%] | inhibition at 0.0078125 ppm (Gaeumannomvces graminis; rate 0.0078125 ppm) [%] | inhibition at 0.015625 ppm (Gaeumannomvces graminis) [%] | pest or weed control at 200 ppm [1] [%] | inhibition at 0.0078125 ppm (Pythium ultimum; rate 0.0078125 ppm) [%] | inhibition at 0.015625 ppm (Pythium ultimum; rate 0.015625 ppm) [%] | inhibition at 0.03125 ppm (Pythium ultimum; rate 0.03125 ppm) [%] | inhibition at 0.0625 ppm (Pythium ultimum; rate 0.0625 ppm) [%] | inhibition at 0.03125 ppm (Gaeumannomvces graminis; rate 0.03125 ppm) [%] | inhibition at 0.0625 ppm (Gaeumannomvces graminis; rate 0.0625 ppm) [%] | inhibition at 0.125 ppm (Gaeumannomvces graminis; rate 0.125 ppm) [%] | inhibition at 0.25 ppm (Gaeumannomvces graminis; rate 0.25 ppm) [%] |
| --- | --- | --- | --- | --- | --- | --- | --- | --- | --- | --- | --- | --- | --- |
| CCN(C)/C=N/c1cc(Br)c(OC2Cc3ccccc3C2)nc1C [Q.062] | ≥ 50 | 0 | 0 | 0 | ≥ 50 |  |  |  |  |  |  |  |  |
| CCN(C)/C=N/c1cc(Br)c(O[C@H]2CC[C@@H](C(C)C)CC2)nc1C [Q.135] |  |  |  |  | ≥ 50 | 0 | 0 | 0 | 0 |  |  |  |  |
| CCN(C)/C=N/c1cc(Br)c(OC(C)c2cc(F)cc(F)c2)nc1C (stereo not shown) [Q.113] |  |  |  | 0 | ≥ 50 |  |  |  |  | 0 | 0 | 0 | 0 |
